Format in all cases: in vivo, mouse
The nature of data set [1]: General health and body weight during chronic treatment. As to conditions: 3 weeks of daily treatment, ip 0.6 mg kg-1; WT and Ts65Dn mice. How it is done:
(§1) A veterinarian was employed to maintain the health and comfort of the animals. Mice were housed in filtered cages in a temperature-controlled room with a 12:12 h dark/light cycle and with ad libitum access to water and food. All efforts were made to minimize animal suffering and use the lowest possible number of animals required to produce statistical relevant results, according to the “3Rs concept”. In this study, we used Ts65Dn mice maintained in their original genetic background[57] by crossing (more than 40 times) Ts65Dn female to C57BL/6JEi × C3SnHeSnJ (B6EiC3) F1 males (Jackson Laboratories). Ts65Dn mice were genotyped by PCR as previously described.[58] Only males were used for behavioral experiments. Ts65Dn and controls were randomly assigned to vehicle groups (2% DMSO in saline), bumetanide (Sigma, 0.6 mg kg^–1 body weight), or 40 (0.6 mg kg^–1 body weight) and treated daily for ∼21 days by intraperitoneal injection (i.p.). On the day of behavioral testing, injection was performed 1 h before the task began.

In data set [2] the test system is Ts65Dn mice. Description: Open field test (locomotor activity). As to conditions: ip 0.6 mg kg-1 daily. Here is the method:
All animal procedures were approved by IIT licensing in compliance with the Italian Ministry of Health (D.Lgs 26/2014) and EU guidelines (Directive 2010/63/EU). A veterinarian was employed to maintain the health and comfort of the animals. Mice were housed in filtered cages in a temperature-controlled room with a 12:12 h dark/light cycle and with ad libitum access to water and food. All efforts were made to minimize animal suffering and use the lowest possible number of animals required to produce statistical relevant results, according to the “3Rs concept”. In this study, we used Ts65Dn mice maintained in their original genetic background[57] by crossing (more than 40 times) Ts65Dn female to C57BL/6JEi × C3SnHeSnJ (B6EiC3) F1 males (Jackson Laboratories). Ts65Dn mice were genotyped by PCR as previously described.[58] Only males were used for behavioral experiments. […]
Ts65Dn male mice (8–16 weeks old) were tested after 1 week of treatment with vehicle or 40 (0.6 mg kg^–1 i.p.). […] The tasks were video-recorded and then analyzed manually by a blind operator. […] The alternation score was calculated as the percentage of correct choices (i.e., left–right or right–left) over the total number of the 10 possible alternations. […]

The test system of data set [3] is Ts65Dn mice. Description: Novel object recognition (NOR) test. Conditions: ip 0.6 mg kg-1 daily, chronic (7-21 days). Here is the method:
as §1
(§2) Ts65Dn male mice (8–16 weeks old) were tested after 1 week of treatment with vehicle or 40 (0.6 mg kg^–1 i.p.). The battery of tests was run over a total period of ∼14 days (four behavioral tests with the following order Open Field, NOR, T-maze, and CFC). […] The tasks were video-recorded and then analyzed manually by a blind operator.

The subject of data set [4] is Ts65Dn mice. Description: Contextual fear-conditioning (CFC) test. Conditions: ip 0.6 mg kg-1 daily, chronic, re-exposure 24 h after conditioning. How it is done: as §1, §2
Data set [5] has as its system Ts65Dn mice. In words: T-maze test (short-term working memory). Conditions: ip 0.6 mg kg-1 daily, chronic (7-21 days). How it is done: as §1, §2

`CN(C)S(=O)(=O)c1cc(C(=O)O)c(O)cc1NCCCCCCCC(F)(F)F` [Compound 40, 5-(N,N-Dimethylsulfamoyl)-2-hydroxy-4-((8,8,8-trifluorooctyl)amino)benzoic Acid]: in data set [1], the animal body weight entry is “did not affect the animal body weight measures” and the “general health (daily hands-on examination)” value was “did not affect the general health”. Besides, the “hyperactivity in open field (distance traveled and average walking speed)” value in data set [2] is listed as “rescued also the hyperactivity”. In addition, the “novel-discrimination ability in the NOR task (discrimination index)” value in data set [3] is on record as “completely rescued”. Besides, in data set [4], the “associative memory in the CFC test (freezing response)” value was “completely restored”. Besides, the “short-term working memory in the T-maze test (number of correct choices)” value in data set [5] was “fully restored”.

These data come from publication PMC8311653, “Design, Synthesis, In Vitro and In Vivo Characterization of Selective NKCC1 Inhibitors for the Treatment of Core Symptoms in Down Syndrome” (Journal of Medicinal Chemistry, 2021).
